According to ChEMBL document CHEMBL4340541, “Synthesis of andrographolide analogues and their neuroprotection and neurite outgrowth-promoting activities” (Bioorg Med Chem, 2019):
Active and inactive are the calls of the source. The calls are words filed in the database; no cut-off is given here.

How the values were obtained:
[1] = test system: PC-12; assay: Neuroprotective activity against 6-OHDA -induced toxicity in rat PC12 cells assessed as increase in cell viability at 20 uM pretreated for 24 hrs followed by 6-OHDA challenge and measured after 24 hrs by MTT assay; format: functional, cell-based
[2] = test system: PC-12; assay: Induction of neurite outgrowth in NGF-induced rat PC12 cells assessed as neurite bearing cells cotreated with 20 ng/ml NGF incubated for 48 hrs by light microscopy; format: functional, cell-based
[3] = test system: BV-2; assay: Antiinflammatory activity in mouse BV2 cells assessed as reduction in LPS-induced NO production at 20 uM incubated for 24 hrs by Griess method; format: functional; details: for inhibition at 20 µM: BV-2, 24 h
[4] = test system: PC-12; assay: Induction of neurite outgrowth in NGF-induced rat PC12 cells assessed as neurite bearing cells at 20 uM cotreated with 20 ng/ml NGF incubated for 48 hrs by methylene blue staining based light microscopy; format: functional
[5] = Lipophilicity, log P of the compound; format: physicochemical; details: octanol/water
[6] = test system: BV-2; assay: Cytotoxicity in mouse BV2 cells assessed as reduction in cell viability; format: cell-based
[7] = test system: PC-12; assay: Induction of neurite outgrowth in rat PC12 cells assessed as neurite bearing cells in absence of 20 ng/ml NGF incubated for 48 hrs by light microscopy; format: functional, cell-based
[8] = test system: PC-12; assay: Neuroprotective activity against H2O2-induced toxicity in rat PC12 cells assessed as increase in cell viability at 20 uM pretreated for 24 hrs followed by H2O2 challenge and measured after 24 hrs by MTT assay; format: functional, cell-based
[9] = test system: PC-12; assay: Neuroprotective activity against 6-OHDA -induced toxicity in rat PC12 cells assessed as increase in cell viability at 10 uM pretreated for 24 hrs followed by 6-OHDA challenge and measured after 24 hrs by MTT assay; format: functional, cell-based
[10] = test system: PC-12; assay: Induction of neurite outgrowth in NGF-induced rat PC12 cells assessed as neurite bearing cells at 20 uM cotreated with 20 ng/ml NGF incubated for 48 hrs by light microscopy; format: functional
[11] = test system: PC-12; assay: Neuroprotective activity against H2O2-induced toxicity in rat PC12 cells assessed as increase in cell viability at 10 uM pretreated for 24 hrs followed by H2O2 challenge and measured after 24 hrs by MTT assay; format: functional, cell-based
[12] = test system: BV-2; assay: Antiinflammatory activity in mouse BV2 cells assessed as reduction in LPS-induced NO production at 1 uM incubated for 24 hrs by Griess method relative to control; format: functional; details: BV-2, 24 h
[13] = test system: BV-2; assay: Antiinflammatory activity in LPS-induced mouse BV2 cells assessed as reduction in iNOS mRNA expression at 20 uM incubated for 24 hrs by RT-PCR analysis method; format: functional, cell-based
[14] = test system: PC-12; assay: Induction of neurite outgrowth in NGF-induced rat PC12 cells assessed as neurite bearing cells at 5 to 10 uM cotreated with 20 ng/ml NGF incubated for 48 hrs by light microscopy; format: functional, cell-based
[15] = test system: BV-2; assay: Antiinflammatory activity in LPS induced mouse BV2 cells assessed as reduction in iNOS expression at 20 uM incubated for 24 hrs by DAPI based fluorescence microscopic method; format: functional, cell-based
[16] = test system: PC-12; assay: Cytotoxicity against rat PC12 cells assessed as reduction in cell viability incubated for 48 hrs; format: cell-based; details: pc-12, 48 h
[17] = test system: BV-2; assay: Antiinflammatory activity in mouse BV2 cells assessed as reduction in LPS-induced NO production incubated for 24 hrs by Griess method; format: functional, cell-based
[18] = test system: BV-2; assay: Neuroprotective activity against microglia-conditioned medium-induced cytotoxicity in rat PC12 cells exposed to conditioned medium derived from mouse BV2 cells assessed as increase in cell viability at 5 to 20 uM by MTT assay; format: functional, cell-based
[19] = test system: BV-2; assay: Antiinflammatory activity in LPS induced mouse BV2 cells assessed as reduction in IL-6 incubated for 24 hrs by ELISA method; format: functional, cell-based
[20] = test system: BV-2; assay: Neuroprotective activity against microglia-conditioned medium-induced cytotoxicity in rat PC12 cells exposed to conditioned medium derived from 24 hrs compound pre-treated mouse BV2 cells assessed as increase in cell viability at 5 to 20 uM by MTT assay; format: functional, cell-based
[21] = test system: BV-2; assay: Neuroprotective activity against microglia-conditioned medium-induced cytotoxicity in rat PC12 cells co-cultred with mouse BV2 cells assessed as increase in cell viability at 5 to 20 uM incubated for 4 hrs by MTT assay; format: functional, cell-based
[22] = test system: BV-2; assay: Antiinflammatory activity in LPS induced mouse BV2 cells assessed as reduction in TNFalpha incubated for 6 hrs by ELISA method; format: functional, cell-based

Row | logP ([5]; read-out: logP) | SMILES | Activity [1] | inhibition [3] | Activity [6] | Activity [8] | Activity [10] | other results
1 | 2.96 | CC(=O)OC[C@@]1(C)[C@H]2CCC(C)=C(C[C@H](OC(C)=O)C3=CCOC3=O)[C@]2(C)CC[C@H]1OC(C)=O | Active |  | Non-Toxic | Active |  | inhibition at 20 µM [3]: 95.7%; inhibition at 1 µM [12]: 34.4%; Activity [13]: Active; Activity [14]: inactive; Activity [15]: Active; Activity [16]: Toxic; inhibition [17]: Dose-dependent effect; Activity [18]: inactive; Activity [19]: Dose-dependent effect; Activity [20]: Active; Activity [21]: Active; Activity [22]: Dose-dependent effect
2 | 4.02 | C=C1CC[C@@H]2[C@](C)(COC(C)=O)[C@H](OC(C)=O)CC[C@@]2(C)[C@@H]1CCC1=CCOC1=O | inactive | Active | Non-Toxic | inactive | inactive | 
3 | 3.83 | C=C1CC[C@@H]2[C@](C)(COC(C)=O)[C@H](OC(C)=O)CC[C@@]2(C)[C@@H]1/C=C/C1=CCOC1=O | inactive | Active | Non-Toxic | inactive | inactive | 

Second part, the compound before the results:

Row | SMILES | logP ([5]; read-out: logP) | Activity [1] | inhibition [3] | Activity [6] | Activity [8] | Activity [10] | other results
4 | C=C1CC[C@@H]2[C@](C)(CO[C@@H]3O[C@H](CO)[C@@H](O)[C@H](O)[C@H]3O)CCC[C@@]2(C)[C@@H]1CCC1=CCOC1=O [NEOANDROGRAPHOLIDE] | 3.07 | inactive | inactive | Non-Toxic | inactive |  | Activity [2]: Dose-dependent effect; Activity [4]: 21.5%; Activity [7]: Active
5 | C[C@@]1(CO)[C@H](O)CC[C@@]2(C)C3CC(C4=CCOC4=O)O[C@]3(C)CC[C@H]12 (stereo partly specified) | 2.16 | Active | inactive | Non-Toxic | Active | inactive | Activity [9]: Active; Activity [11]: Active
6 | C=C1CC[C@@H]2[C@](C)(CO)[C@H](O)CC[C@@]2(C)[C@@H]1C/C=C1/C(=O)OC[C@H]1O [ANDROGRAPHOLIDE] |  |  |  |  |  | Active | inhibition at 20 µM [3]: 76.7%
7 | C=C1CC[C@@H]2[C@](C)(CO)[C@H](O)CC[C@@]2(C)[C@@H]1C/C=C1\C=COC1=O | 3.28 | inactive | inactive | Non-Toxic | inactive | inactive | 
8 | CC1=C(CCC2=CCOC2=O)[C@]2(C)CC[C@@H](O)[C@@](C)(CO)[C@H]2CC1 | 2.9 | inactive | inactive | Non-Toxic | inactive | Active | Activity [2]: Dose-dependent effect; Activity [4]: 31.2%; Activity [7]: Active
9 | C=C1CC[C@@H]2[C@](C)(CO)[C@H](O)CC[C@@]2(C)[C@@H]1CCC1C(=O)OC[C@H]1O (stereo partly specified) | 2.54 | inactive | inactive | Non-Toxic | inactive | inactive | 
10 | C=C1CC[C@@H]2[C@](C)(CO)[C@H](O)CC[C@@]2(C)[C@@H]1CCC1=CCOC1=O [DEOXYANDROGRAPHOLIDE] | 3.43 | inactive | inactive | Non-Toxic | inactive | inactive | 
11 | C=C1CC[C@@H]2[C@](C)(COC(C)=O)[C@H](OC(C)=O)CC[C@@]2(C)[C@@H]1CCC1C(=O)OC[C@H]1OC(C)=O (stereo partly specified) | 3.71 | inactive | Active | Non-Toxic | inactive | inactive | 
12 | C=C1CC[C@@H]2[C@](C)(CO)[C@H](O)CC[C@@]2(C)[C@@H]1/C=C/C1=CCOC1=O |  | inactive | inactive | Non-Toxic | inactive | <=16.1% | Activity [2]: Dose-dependent effect; Activity [4]: 18.6%; logP [5]: 3.23; Activity [7]: Active
13 | C=C1CC[C@@H]2[C@](C)(COC(C)=O)[C@H](OC(C)=O)CC[C@@]2(C)[C@@H]1C/C=C1\C=COC1=O | 3.87 | inactive |  | Non-Toxic | inactive | inactive | inhibition at 20 µM [3]: 78%; Activity [13]: Active; Activity [15]: Active; inhibition [17]: Dose-dependent effect; Activity [18]: inactive; Activity [19]: Dose-dependent effect; Activity [20]: Active; Activity [22]: Dose-dependent effect
